Results taken from PubChem BioAssay AID1549 (Sanford-Burnham Center for Chemical Genomics, 2009).
The source made the active and inactive calls. The rule behind the calls is not given here.

Target: Influenza A virus M2 proton channel (A/TW/4845/1999 H1N1)
Test: M2 proton channel binding, NMR based, influenza A virus H1N1 strain (AID 1549)
Settings: NMR binding screen, M2 protein

| Structure (SMILES) | Kd |
| --- | --- |
| NC(=O)/C=C/C(=O)Nc1ccccc1 | > 4 mM (inactive) |
| COC(=O)[C@]1(C)CC[C@]2(C)CC[C@]3(C)C4=CCc5c(cc(O)c(O)c5C)[C@]4(C)CC[C@@]3(C)C2C1 (some centres undefined) | > 4 mM (inactive) |
| O=C(Nc1ccccc1)N1CCOCC1 | > 4 mM (inactive) |
| Cc1nccc(-c2cccc(N)c2)n1 | > 4 mM (inactive) |
| CC1O[C@@H](Oc2c(-c3ccc(O)c(O)c3)oc3cc(O)cc(O)c3c2=O)[C@H](O)[C@H](O)[C@H]1O (some centres undefined) | > 4 mM (inactive) |
| OCc1c[nH]c2ccccc12 | > 4 mM (inactive) |
| Cc1cc(C)nc(/N=C(/N)Nc2cccc(F)c2)n1 | > 4 mM (inactive) |
| O=C(O)/C=C1\NC(=O)c2ccccc21 | > 4 mM (inactive) |
| O=C(Nc1ccon1)c1sc2cc(F)ccc2c1Cl | > 4 mM (inactive) |
| O=c1c(-c2ccco2)[n+]([O-])c2ccccc2n1O | > 4 mM (inactive) |
| Cc1ccc(S(=O)(=O)/N=C2\NC(=O)CS2)cc1 | > 4 mM (inactive) |
| Cc1cc(C)c2ccc[n+]([O-])c2c1O | > 4 mM (inactive) |
| NCCN=C1NS(=O)(=O)c2ccccc21 | > 4 mM (inactive) |
| CC(=O)Nc1ccccc1OCC(N)=O | > 4 mM (inactive) |
| Nc1ccc2c(c1)S(=O)(=O)C=C2 | > 4 mM (inactive) |
| Cc1nnc(NCCN2CCOCC2)[nH]c1=O | > 4 mM (inactive) |
| COCC(=O)Nc1cccc2ccccc12 | > 4 mM (inactive) |
| Cn1c(=O)c2c(n(C)c1=O)=NC1(CCCCC1)N=2 | > 4 mM (inactive) |
| CC(=O)O[C@H]1CC[C@@]2(C)C(CC[C@]3(C)C2C(=O)C=C2C4[C@@H](C)[C@H](C)CC[C@]4(C(=O)O)CC[C@]23C)C1(C)C (some centres undefined) | > 4 mM (inactive) |
| CN1CCC(N2CCCC(C(N)=O)C2)CC1 (centres undefined) | > 4 mM (inactive) |
| c1ccc(Cn2cccc2)nc1 | > 4 mM (inactive) |
| COc1ccc(C2=CC(=O)C=CC2=O)cc1 | > 4 mM (inactive) |
| OC[C@H]1O[C@@H](n2cnc3c(NCc4ccco4)ncnc32)[C@H](O)[C@@H]1O | > 4 mM (inactive) |
| Cc1ccc(SCC(=O)N2CCOCC2)cc1 | > 4 mM (inactive) |

| Structure (SMILES) | Kd |
| --- | --- |
| CN(C)c1ccc(N2C(=O)CCC2=O)cc1 | > 4 mM (inactive) |
| CN1C2C[C@H](OC(=O)[C@H](CO)c3ccccc3)C[C@H]1[C@@H](O)C2 | > 4 mM (inactive) |
| Cc1cc(NC(=O)c2ccc3c(c2)OCCO3)no1 | > 4 mM (inactive) |
| CN(c1ccccc1C(=O)N1CCCC1)S(C)(=O)=O | > 4 mM (inactive) |
| COc1ccc2c(c1)OCc1c-2oc2cc(OC)ccc12 | > 4 mM (inactive) |
| O=c1c2c(nc3nc(Cc4ccccc4)[nH]n13)CCC2 | > 4 mM (inactive) |
| Nc1cc(N)nc(SCc2ccccc2)n1 | > 4 mM (inactive) |
| Cn1c(CSc2nc3ccccc3s2)n[nH]c1=S | > 4 mM (inactive) |
| O=C(Nc1cccc(C(F)(F)F)c1)c1cccnc1 | > 4 mM (inactive) |
| Cc1occc(=O)c1O | > 4 mM (inactive) |
| O=c1c2ccccc2oc2ccc(O)cc12 | > 4 mM (inactive) |
| COc1ccc(-c2coc3cc(O)ccc3c2=O)cc1 | > 4 mM (inactive) |
| NC(=O)c1ccc(N=Cc2ccc[nH]2)cc1 | > 4 mM (inactive) |
| O=c1oc2ccccc2cc1O | > 4 mM (inactive) |
| Cc1n[nH]c(=S)n(/N=C/c2ccccc2)c1=O | > 4 mM (inactive) |
| COc1ccc(NS(=O)(=O)c2ccc(N)cc2)nn1 | > 4 mM (inactive) |
| Cc1nn(CC(=O)Nc2ccccn2)c(=O)c2ccccc12 | > 4 mM (inactive) |
| CCOC(=O)CN1C(=O)c2ccccc2C1=O | > 4 mM (inactive) |
| O=C(Oc1ccc(-c2nnco2)cc1)N1CCCCC1 | > 4 mM (inactive) |
| C/C1=C/CC(C)(C)/C=C/C/C(C)=C/CC1 | > 4 mM (inactive) |
| O=c1[nH]cc(NCc2ccccc2)c(=O)[nH]1 | > 4 mM (inactive) |
| COc1ccc(NC(=O)CCCC(=O)O)c(OC)c1 | > 4 mM (inactive) |
| NC(=O)C1CCN(C(=O)c2ccccc2)CC1 | > 4 mM (inactive) |
| O=C1C(=O)N(CNc2ncccn2)c2ccccc21 | > 4 mM (inactive) |

| Structure (SMILES) | Kd |
| --- | --- |
| NC(=O)CNC(=O)c1ccc2ccccc2n1 | > 4 mM (inactive) |
| NC(=O)CSc1nnc2ccc(-c3ccco3)nn12 | > 4 mM (inactive) |
| O=S1(=O)CCC(NC(=S)N2CCCCC2)C1 (centres undefined) | > 4 mM (inactive) |
| Nc1ccn(C2O[C@H](CO)[C@@H](O)[C@H]2O)c(=O)n1 (some centres undefined) | > 4 mM (inactive) |
| O=C1C2CCCCC2C(=O)N1c1ccc(O)cc1 (centres undefined) | > 4 mM (inactive) |
| N[C@@H](CCC(=O)N[C@@H](CS)C(=O)NCC(=O)O)C(=O)O | > 4 mM (inactive) |
| O=C1CC(c2ccccc2)n2ncnc2N1 (centres undefined) | > 4 mM (inactive) |
| Nc1cccc2nonc12 | > 4 mM (inactive) |
| Cn1nc(C(=O)N2CCCC2)c2ccccc2c1=O | > 4 mM (inactive) |
| CC1=NN2C(=N)/C(=C\c3cccs3)C(=O)N=C2S1 | > 4 mM (inactive) |
| Cc1nc2ccccc2c(=O)n1NC(=O)C1CCCCC1 | > 4 mM (inactive) |
| Nc1ccc(-c2csnn2)cc1 | > 4 mM (inactive) |
| COc1ccc(C(O)c2nccn2C)cc1 (centres undefined) | > 4 mM (inactive) |
| Cc1cc(N2CCN(C)CC2)ncn1 | > 4 mM (inactive) |
| CCOC(=O)c1c(C)nc2ncccn12 | > 4 mM (inactive) |
| O=C(NCc1ccccc1F)c1cccs1 | > 4 mM (inactive) |
| Cc1nnc(NCc2cccnc2)[nH]c1=O | > 4 mM (inactive) |
| CC(N)C(=O)c1ccco1 (centres undefined) | > 4 mM (inactive) |
| CCCc1cc2c(c(NC(C)=O)n1)c(=O)oc1ccccc12 | > 4 mM (inactive) |
| O=S1(=O)CCC(NC(=S)N2CCOCC2)C1 (centres undefined) | > 4 mM (inactive) |
| COc1cc(C(=S)N2CCOCC2)ccc1O | > 4 mM (inactive) |
| Cc1ccc(N2C(=O)CC(=O)NC2=O)cc1 | > 4 mM (inactive) |
| O=C1CN(C(=O)c2ccccc2F)c2ccccc2N1 | > 4 mM (inactive) |
| O=C(c1ccc(F)cc1)N1CCN(c2ncccn2)CC1 | > 4 mM (inactive) |

| Structure (SMILES) | Kd |
| --- | --- |
| Cc1ccccc1NC(=O)C1CC(=O)N=C(N)S1 (centres undefined) | > 4 mM (inactive) |
| CCOC(=O)Nc1ccc2c(C)cc(=O)oc2c1 | > 4 mM (inactive) |
| NC12CC3CC(C1)CC(CC(=O)O)(C3)C2 | > 4 mM (inactive) |
| O=C1CC(c2c[nH]c3ccccc23)C(=O)N1 (centres undefined) | > 4 mM (inactive) |
| COC(=O)[C@]1(C)CCC[C@]2(C)c3ccc(C(C)C)cc3C(=O)CC12 (some centres undefined) | > 4 mM (inactive) |
| COc1c(F)c(F)c(-c2csc(N)n2)c(F)c1F | > 4 mM (inactive) |
| O=C(O)c1ccccc1C(=O)Nc1ccccc1 | > 4 mM (inactive) |
| NS(=O)(=O)c1ccc(NC(=S)NC2CC2)cc1 | > 4 mM (inactive) |
| CSc1nnc2ccc(-c3cccnc3)nn12 | > 4 mM (inactive) |
| N/N=C1\CCCc2c1no[n+]2[O-] | > 4 mM (inactive) |
| CSc1ccccc1NC(=O)c1cccnc1 | > 4 mM (inactive) |
| CN(C)/C=N/S(=O)(=O)c1ccccc1 | > 4 mM (inactive) |
| Cc1ccc(Nc2nc(N)nc(CC#N)n2)cc1 | > 4 mM (inactive) |
| CC(=O)O[C@H]1CC[C@@]2(C)C(=CCC3C2CC[C@@]2(C)C3CC[C@@H]2C(C)CCCC(C)C)C1 (some centres undefined) | > 4 mM (inactive) |
| CC1CC[C@]2(NC1)O[C@H]1CC3C4CC[C@H]5C[C@@H](O)CC[C@]5(C)C4CC[C@]3(C)[C@H]1[C@@H]2C (some centres undefined) | > 4 mM (inactive) |
| CN(C)S(=O)(=O)c1ccccc1C#N | > 4 mM (inactive) |
| Cc1cc(/C=N/O)nc(=O)[nH]1 | > 4 mM (inactive) |
| CC(=O)O[C@H]1CCC2(C)C3=C(CCC2C1(C)C)[C@@]1(C)CC[C@@H](C(C)CCC=C(C)C)[C@]1(C)CC3 (some centres undefined) | > 4 mM (inactive) |
| Cc1c(C(=O)OC(C)C)[nH]c2c1C(=O)CCC2 | > 4 mM (inactive) |
| CC(=O)Oc1cc(OC(C)=O)c2c(c1)O[C@H](c1ccc(OC(C)=O)c(OC(C)=O)c1)[C@H](OC(C)=O)C2 | > 4 mM (inactive) |
| O=C(O)CS(=O)(=O)c1ccccc1[N+](=O)[O-] | > 4 mM (inactive) |
| O=c1sc2ccccc2n1CN1CCOCC1 | > 4 mM (inactive) |
| O=C(NCc1cccs1)c1ccc2c(c1)OCCO2 | > 4 mM (inactive) |
| Cn1c(SCC(N)=O)nc2c1c(=O)[nH]c(=O)n2C | > 4 mM (inactive) |

| Structure (SMILES) | Kd |
| --- | --- |
| CC(=O)Nc1cccc(-c2nc3ccccc3c(=O)o2)c1 | > 4 mM (inactive) |
| O=c1[nH]c2sc3c(c2c2ncnn12)CCCC3 | > 4 mM (inactive) |
| CN1CCN(C(=O)c2ccccc2N)CC1 | > 4 mM (inactive) |
| CC(C)c1ccccc1NC(=O)c1cnccn1 | > 4 mM (inactive) |
| CC(C)Nc1nc2n(c(=O)n1)CCN2C(C)C | > 4 mM (inactive) |
| O=C(O)c1ccc2[nH]c3c(c2c1)CSCC3 | > 4 mM (inactive) |
| C=C[C@](C)(O)CCC=C(C)C | > 4 mM (inactive) |
| COC(=O)NCc1cc2cc(Cl)ccc2[nH]1 | > 4 mM (inactive) |
| CC1(C)CC2C1CCC1(C)OC2(C)CCC1O (centres undefined) | > 4 mM (inactive) |
| O=[N+]([O-])c1cccc2c1nnn2C(CO)OCCO (centres undefined) | > 4 mM (inactive) |
| c1ccc(C[N+]23CCN(CC2)c2ccccc23)cc1 | > 4 mM (inactive) |
| Cn1nnc2c(Cl)ncnc21 | > 4 mM (inactive) |
| O=C(NC(=O)N1CCOCC1)c1ccccc1 | > 4 mM (inactive) |
| Cc1c(C(=O)Nc2ccncc2)oc2c1C(=O)CC(C)(C)C2 | > 4 mM (inactive) |
| O=C1CSC(=S)N1Cc1cccnc1 | > 4 mM (inactive) |
| Cc1nnc(SCC(=O)Nc2ccccc2)[nH]c1=O | > 4 mM (inactive) |
| OCC1CCCC1O (centres undefined) | > 4 mM (inactive) |
| CSc1nnnn1-c1cccc(O)c1 | > 4 mM (inactive) |
| NC(=O)c1ccccc1N1CCCCC1 | > 4 mM (inactive) |
| COc1cc(C)c(Cl)cc1S(=O)(=O)N(C)C | > 4 mM (inactive) |
| OCc1cccc2c1OCCO2 | > 4 mM (inactive) |
| COc1ccc2cnn(-c3ccccc3)c(=O)c2c1OC | > 4 mM (inactive) |
| S=C(Nc1ccc2nccnc2c1)N1CCOCC1 | > 4 mM (inactive) |
